Laboratory results as given in patent publication US20240000950A1, “THERAPEUTIC CURE-PRO COMPOUNDS FOR TARGETED DEGRADATION OF BET DOMAIN PROTEINS, AND METHODS OF MAKING AND USING THEM” (CORNELL UNIVERSITY, priority 2020, published 2024).
Entries after “also recorded” stand apart in the source; their conditions may differ.

Assays:
[1] = test system: Namalwa cells; assay: CellTiter-Glo cell viability, Namalwa cells; assay type: cell-based; conditions: 72 h, 10 nM-10 μM, co-dosed 1:1 with CRBN ligand 8047, compared to monomer alone
Description: (§1) All cell lines were purchased from ATCC or DSMZ and grown at 37° C. with 5% C02. Human HeLa cells were cultured in complete growth medium (Dulbecco's modified Eagle's medium (DMEM) supplemented with 10% FBS); MCF7 cells were cultured in complete growth medium (Dulbecco's modified Eagle's medium (DMEM) supplemented with 10% FBS and 0.01 mg/ml human recombinant insulin (Sigma Aldrich); Namalwa and MOLM-13 cells were cultured in complete growth medium (RPMI 1640 medium supplemented with 10% FBS); MV-4-11 were cultured in complete growth medium (Iscove's Modified Dulbecco's medium, supplemented with 10% FBS); HCT116 cells were cultured in complete growth medium (McCoy's 5a Medium supplemented with 10% FBS). For cellular degradation of BRD4 studies, cells were seeded in a 12-well plate at 70-80% confluency, allowed to attach overnight, and incubated with the indicated compounds for the indicated time. […]
CellTiter-Glo® 2.0 Cell Viability Assay (Promega) was carried out following the manufacturer's recommendations. […] After a 72 h incubation, 100 ul of the CellTiter-Glo® substrate was added per well and luminescence was read on a Spectramax M5 (Molecular Devices). […]
Namalwa cells (1×104) were treated for 72 hours with the compounds solubilized in DMSO. […] Cellular viability was determined using the CellTiter-Glo® Luminescent Cell Viability Assay (Promega) described above. […]

[2] = molecular target: T1, BRD4 (Homo sapiens, UniProt O60885); assay: CURE-PRO-mediated BRD4 degradation in HeLa cells, Western blot; assay type: cell-based; design: endogenous in cells; host or cells: HeLa; conditions: 24 h
Description: (§2) All cell lines were purchased from ATCC or DSMZ and grown at 37° C. with 5% C02. Human HeLa cells were cultured in complete growth medium (Dulbecco's modified Eagle's medium (DMEM) supplemented with 10% FBS); MCF7 cells were cultured in complete growth medium (Dulbecco's modified Eagle's medium (DMEM) supplemented with 10% FBS and 0.01 mg/ml human recombinant insulin (Sigma Aldrich); Namalwa and MOLM-13 cells were cultured in complete growth medium (RPMI 1640 medium supplemented with 10% FBS); MV-4-11 were cultured in complete growth medium (Iscove's Modified Dulbecco's medium, supplemented with 10% FBS); HCT116 cells were cultured in complete growth medium (McCoy's 5a Medium supplemented with 10% FBS). For cellular degradation of BRD4 studies, cells were seeded in a 12-well plate at 70-80% confluency, allowed to attach overnight, and incubated with the indicated compounds for the indicated time. When indicated, a 15-minute pretreatment with 10 μM pomalidomide, 10 μM VHL298, 10 μM Nutlin3a, 1 μM MG-132 or 1 μM Carfilzomib was performed before the addition of CURE-PROs. For washout studies, after CURE-PRO treatment, media was aspirated and incubated with complete medium for the indicated time before lysis.
(§3) Anti-BRD4 (13440, 1:1,000 dilution for Western Blot and 1:25 dilution for ProteinSimple); Anti-BRD2 (5848 1:1,000 dilution for Western Blot and 1:25 dilution for ProteinSimple); β-Actin (3700, 1:2,000 dilution for Western Blot), β-Actin (4970, 1:50 dilution for ProteinSimple) anti-mouse IgG-HRP, and anti-rabbit IgG-HRP antibodies were purchased Cell Signaling Technology. Anti-GAPDH (600-401-A33, 1:100 dilution for ProteinSimple) was purchased from Rockland Immunochemicals, Inc. Anti-BRD3 (sc-81202, 1:200 dilution for Western Blot) was purchased from Santa Cruz Biotechnology.
HeLa, MCF7, or HCT116 cells (2.5-3×10^6) were treated for 24 hours with the indicated compounds solubilized in DMSO. The cells were washed in ice-cold PBS and were then lysed in RIPA lysis buffer (150 mM NaCl, 5 mM EDTA, 1% NP-40, 0.5% sodium deoxycholate, 0.1% SDS, 50 mM Tris, pH 8.0) with Roche protease inhibitor complete cocktail and phosphatase inhibitors (10 mM sodium fluoride, 10 mM sodium pyrophosphate, 1 mM sodium orthovanadate and 20 mM β-glycerophosphate). The total protein concentrations were determined by Bradford Protein Assay and 10-20 μg of protein was loaded onto 4-15% Tris-Glycine gradient gels (Biorad). After standard gel electrophoresis, the separated proteins were transferred to PVDF membrane by wet transfer. The immunoblots were then blocked for 1 hour in 5% skim milk in TBST or 5% BSA in TBST, according to manufacturer's instructions, before an overnight incubation at 4° C. with indicated antibodies and membranes. Membranes were then incubated with the appropriate horseradish peroxidase-conjugated secondary antibodies (1:5,000 dilution) for 1 h at room temperature and the bands were visualized using the Clarity Max Western ECL Substrate (Biorad) and the ChemiDoc Imaging System (Biorad). Signal was detected with ECL Western Blotting Substrate (Pierce) and X-ray film processed with a Konica SRX-101 X-ray film processor or captured by Bio-Rad's Chemidoc Imaging system.
HeLa cells (2.5×10^6) were treated for 24 hours with the sample compounds solubilized in DMSO. Compounds were added at 1-10 μM each. Standardized protein samples were electrophoresed and imaged as described in the immunoblotting description above. FIGS. 6-18 depicts the CURE-PRO-mediated BRD4 degradation for BRD monomers (JQ1 derivatives comprising of catechol linkers), and CRBN ligands, 8048 and 8049 (pomalidomide derivatives comprising boronic acid linkers) combined in a 1:1 ratio.
HeLa cells (2.5×10^6) were treated for 24 hours with the compounds solubilized in DMSO. The compounds were added at 10 μM each. Standardized protein samples were electrophoresed and imaged as described in the immunoblotting section above. […]

[3] = molecular target: T1, BRD4; assay: CURE-PRO-mediated BRD4 degradation in HeLa cells, WES capillary electrophoresis (ProteinSimple); assay type: cell-based; design: endogenous in cells; host or cells: HeLa; conditions: 4-24 h, 10 μM each, co-dosed with CRBN ligand 8047, washed after 4 h
Description: as §2, §3
WES Simple analysis was performed on WES system (ProteinSimple-Biotechne) according to the manufacturer's instructions. Total protein concentrations of cell lysates were determined by the Pierce BCA kit (Thermo Fisher). 3 μL of 0.3 μg/uL of the protein lysate was loaded onto a 12- to 230-kDa WES assay plate (ProteinSimple) where 300 nL sample was withdrawn through a capillary, subjected to electrophoretic separation of proteins by size, and followed by the simultaneous, HRP-based detection of proteins using the Anti-Rabbit Detection Module (Proteinsimple: #DM-001). The electropherograms were checked then the automatic peak detection was manually corrected if it was required.
HeLa cells (2.5×10^6) were treated for 4-24 hours with the compounds solubilized in DMSO. After 4 hours, indicated points were washed and cells were left in full growth media. Compounds were added at 10 μM each. […]

[4] = molecular target: T1, BRD4; assay: Summary of E3 ligase directed degradation of BRD4, estimated from Western Blot or WES (Tables 1-6); assay type: cell-based; design: endogenous in cells; host or cells: HeLa, MCF7 or HCT116
How it was run: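 HeLa, MCF7 or HCT116 cells treated 24 h with compounds in DMSO, lysed in RIPA buffer; BRD4 levels read by Western blot (ECL detection) or capillary WES with HRP detection. Check mark denotes 30% to 70% or higher protein degradation.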

[5] = test system: MV-4-11 cells; assay: CellTiter-Glo cell viability, MV-4-11 cells; assay type: cell-based; conditions: 1 nM-100 μM, cotreated 1:1 with CRBN ligand 8049
Description: as §2
CellTiter-Glo® 2.0 Cell Viability Assay (Promega) was carried out following the manufacturer's recommendations. Cells were seeded at a density of 1000 cells/well in a white 96 well plates (Corning, #3917) in a total volume of 100 μl with respective monomers, combinations of BRD ligands together with E3 ligase ligands or vehicle control treatment. After a 72 h incubation, 100 ul of the CellTiter-Glo® substrate was added per well and luminescence was read on a Spectramax M5 (Molecular Devices). Dose-response curves were generated using Graphpad Prism software.
MV-4-11 cells (5×104) were treated for 24 hours with the sample compounds solubilized in DMSO. The compounds were added at 1 nM-100 μM each. Cellular viability was determined using the CellTiter-Glo® Luminescent Cell Viability Assay (Promega) described above. FIGS. 19-22 depict the CURE-PRO-mediated loss of cellular viability for BRD monomers (JQ1 derivatives comprising of catechol linkers), and CRBN ligand, 8049 (pomalidomide derivatives comprising boronic acid linkers) combined in a 1:1 ratio.
MV-4-11 cells (1×104) were treated for 72 hours with the compounds solubilized in DMSO. Compounds were added at 10 nM-100 μM each. Cellular viability was determined using the CellTiter-Glo® Luminescent Cell Viability Assay (Promega) described above. FIGS. 47-54 depict the CURE-PRO-mediated loss of cellular viability for BRD monomers (JQ1 derivatives comprising of boronic acid linkers), and CRBN ligands, 8046, 8047, and 8066 (pomalidomide derivatives comprising diol linkers) combined in a 1:1 ratio.

[6] = molecular target: T1, BRD4; assay: BRD protein family degradation in HCT116 cells with MDM2 ligands, Western blot: BRD4; assay type: cell-based; design: endogenous in cells; host or cells: HeLa, MCF7 or HCT116; conditions: 24 h, with MDM2 ligands 8310 / 8312
Description: as §1
HeLa, MCF7, or HCT116 cells (2.5-3×10^6) were treated for 24 hours with the indicated compounds solubilized in DMSO. […] The total protein concentrations were determined by Bradford Protein Assay and 10-20 μg of protein was loaded onto 4-15% Tris-Glycine gradient gels (Biorad). […] Signal was detected with ECL Western Blotting Substrate (Pierce) and X-ray film processed with a Konica SRX-101 X-ray film processor or captured by Bio-Rad's Chemidoc Imaging system. […]

[7] = test system: SLC19A1; assay: Suppression of the c-MYC downstream target gene SLC19A1, RT-PCR in HeLa cells; assay type: cell-based, Human; conditions: 24 h, 10 μM each
Description: The suppression of the expression of the downstream c-MYC target, SLC19A1, was measured by RT-PCR using Power SYBR® Green Cells-to-Ct™ Kit (Life Technologies). Adherent cells were plated on 96 well plates at 5,000 cells per well were treated for 24 h with monomer compounds and compounds capable of reversible interactions (1 nM-100 μM). Cells were subsequently washed in ice-cold PBS processed according to the manufacturer's instructions. Quantitative real-time PCR was performed using a ViiA™ 7 Real-time PCR System (Applied Biosystems, Foster City, CA, USA). GAPDH and ACTB served as internal controls. The primers used were (5′-3′): GAPDH-F: AGCCACATCGCTCAGACAC (SEQ ID NO:9), GAPDH-R: GCCCAATACGACCAAATCC (SEQ ID NO:10), ACTB-F: CCAACCGCGAGAAGATGA (SEQ ID NO:11), ACTB-R: […] (SEQ ID NO:12), SLC19A1-F: […] (SEQ ID NO:13), SLC19A1-R: […] (SEQ ID NO:14).
HeLa cells (1×104) were treated for 24 hours in 96 well plates with the compounds solubilized in DMSO. Compounds were added at 10 μM each and RNA expression measured by the Cells-to Ct method described above (Thermofisher).

| SMILES | loss of cell viability (CellTiter-Glo) [1] | BRD4 degradation with pomalidomide and the BRD ligand (no 8047) ([2]; 10 μM) | BRD4 degradation after preincubation with pomalidomide ([2]; 10 μM, 1:1 with CRBN ligand 8047, pomalidomide preincubated 15 min at equimolar concentration) | BRD4 degradation ([2]; BRD ligand (monomer) alone) | BRD4 degradation, time dependence and washout [3] | Degradation of BRD4, combination with CRBN ligand [drawing 421] ([4]; Table 1, CRBN ligand drawn as drawing 421 (by the text apparently 8047)) | toxicity / loss of cellular viability (CellTiter-Glo) [5] | selectivity of degradation within the BRD protein family [6] | Degradation of BRD4, combination with MDM2 ligand [drawing 463] ([4]; Table 5, aryl-boronic acid-containing MDM2 ligand drawn as drawing 463 (apparently 8310)) | Degradation of BRD4, combination with MDM2 ligand [drawing 464] ([4]; Table 5, aryl-boronic acid-containing MDM2 ligand drawn as drawing 464 (apparently 8312)) | suppression of SLC19A1 expression ([7]; with MDM2 ligand 8310) | suppression of SLC19A1 expression ([7]; with MDM2 ligand 8312) |
| --- | --- | --- | --- | --- | --- | --- | --- | --- | --- | --- | --- | --- |
| CCNC(=O)C[C@@H]1N=C(c2ccc(Cl)cc2)c2cc(-c3cccc(B(O)O)c3)ccc2-n2c(C)nnc21 [BRD-E72, (3-((4S)-6-(4-chlorophenyl)-4-(2-(ethylamino)-2-oxoethyl)-1-methyl-4H-benzo[f][1,2,4]triazolo[4,3-a][1,4]diazepin-8-yl)phenyl)boronic acid] | the dose-response curves shifted towards the left; also recorded: marked loss in cell viability | failed to induce BRD4 degradation | inhibition of CURE-PRO-mediated BRD4 degradation | no change in expression is observed | marked BRD4 degradation after 4 h with sustained degradation for up to 8 h after drugs are washed out | ✓ (A black check mark indicates efficacy of 30% to 70% or higher protein degradation) |  |  |  |  |  |  |
| CCNC(=O)C[C@@H]1N=C(c2ccc(Cl)cc2)c2cc(OCCNC(=O)c3cccc(O)c3O)ccc2-n2c(C)nnc21 [BRD-N25] |  |  |  |  |  |  | a concentration-dependent loss in cellular viability was observed; also recorded: increased toxicity | some selectivity for BRD3 and BRD4 over BRD2 for 8310 | ✓ (A black check mark indicates efficacy of 30% to 70% or higher protein degradation) | ✓ (A black check mark indicates efficacy of 30% to 70% or higher protein degradation) | a rightward shift in the curve and an increase in the Ct values | a rightward shift in the curve and an increase in the Ct values |
